pIC50: −log10 of the molar value.
Tests used:
pRB in OVCAR3 cells = experiment: pRB ICW Assay in OVCAR3 Cells; type: cell-based; conditions: Homo sapiens, OVCAR-3, incubated with compound for 2 hours, read-out: OVCAR3 p-RB ICW IC50
Protocol: pRB ICW Assay in OVCAR3 Cells
OVCAR3 cells were maintained in RPMI (Corning, Catalog #: 10-040-CV) supplemented with 10% v/v FBS (Gibco, Catalog #: 26140-079), 1% v/v Penicillin Streptomycin (Gibco, Catalog #15140-122.) OVCAR3 cells grown at log phase were trypsinized, counted, and resuspended in fresh medium to reach a final density of 6.7e4 cells/mL and 75 μL of culture were dispensed into a 384-well plate (Falcon, cat #353962) using a Multidrop Combi dispenser (Thermo Scientific). The next day, compounds were dispensed as a 9-point, ½ log serial dilution using a Tecan digital dispenser (D300e), and cells were incubated with compound for 2 hours in a humidified incubator at 37° C. A reference compound at a final concentration of 10 μM was used as a control for maximum inhibition. Each compound was tested in duplicates for each experiment. At the end of the incubation, 25 μL of 16% paraformaldehyde (Electron Microscopy, cat #15710) was slowly added to each well and the plate was incubated at room temperature (RT) for 30 minutes to fix cells. Cells were then permeabilized by incubating with 50 μL/well of wash buffer (lx PBS with 0.1% Triton X-100) 5×5 minutes, followed by 1 hour blocking with 30 μL/well of Odyssey blocking buffer (Li—COR, cat #927-40000), at RT. Anti-phosphor RB antibody (Cell signaling 8516S) was diluted 1:1000 in Odyssey blocking buffer and 20 μL was added to all wells and incubated overnight in 4° C. with gently rocking. The next day, cells were washed 5×5 min with 50 μL/well of wash buffer, followed with 1 hour incubation with secondary antibody and DRAQ5 diluted in Odyssey blocking buffer (1:500 dilution for secondary antibody and 1:2000 dilution for DRAQ5), 5×5 min washes, and one last wash with water. Plates were dried in 37° C. oven for 5 minutes and scanned using Li—COR Odyssey CLx imaging system to acquire intensities at 700 and 800 nm channels.

CDK4/Cyclin D1 = biological target: T1, CDK4/Cyclin D1 (Homo sapiens, UniProt P11802); experiment: CDK4/CyclinD1 Enzymatic Activity Assay (TR-FRET); type: biochemical; conditions: CDK4/CyclinD1 1 nM, ATP 2 mM, read-out: CDK4_D1 IC50
T1 construct: purchased ProQinase; host or cells: insect cell
T1 sequence (P11802 whole entry): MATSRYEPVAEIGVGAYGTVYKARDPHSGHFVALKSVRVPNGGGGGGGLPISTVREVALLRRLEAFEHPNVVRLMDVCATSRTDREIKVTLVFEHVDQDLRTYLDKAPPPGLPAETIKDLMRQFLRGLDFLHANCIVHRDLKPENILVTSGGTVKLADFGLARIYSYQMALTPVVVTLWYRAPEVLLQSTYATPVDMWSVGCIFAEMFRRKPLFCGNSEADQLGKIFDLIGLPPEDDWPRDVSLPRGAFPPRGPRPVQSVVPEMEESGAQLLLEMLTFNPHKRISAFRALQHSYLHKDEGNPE
T1 sequence (P24385 whole entry partner): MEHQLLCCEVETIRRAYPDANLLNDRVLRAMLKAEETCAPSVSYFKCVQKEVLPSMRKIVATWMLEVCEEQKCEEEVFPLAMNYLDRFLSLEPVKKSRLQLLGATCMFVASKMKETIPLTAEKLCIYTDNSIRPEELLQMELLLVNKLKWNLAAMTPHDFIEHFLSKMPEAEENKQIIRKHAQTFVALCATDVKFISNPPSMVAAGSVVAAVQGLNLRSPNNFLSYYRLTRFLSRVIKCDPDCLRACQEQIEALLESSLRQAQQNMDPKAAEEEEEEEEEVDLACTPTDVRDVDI
Protocol: CDK4/CyclinD1 Enzymatic Activity Assay
The inhibitory activity of compounds was evaluated in vitro using TR-FRET assay with white 384-well low volume microplate (Greiner Bio-One). CDK4/Cyclin D1 catalyzed phosphorylation of peptide in the presence and absence of compounds was measured and used in IC50 determination. Recombinant protein complex CDK4/Cyclin D1, expressed from insect cell, was purchased from ProQinase. Testing compounds were dissolved in DMSO at 1 mM and tested in 9-dose IC50 mode. The reaction mixture was prepared by mixing CDK4/CyclinD1 (1 nM final), ULight-4E-BP1 (100 nM final, Perkinelmer, TRF0128-D), and ATP (2 mM final) in assay buffer (20 mM of HEPES pH 7.4, 1 mM of EGTA, 0.05% BSA, 0.005% Tween 20, and 1 mM TCEP). The compound of interest in DMSO was added to each well in 3-fold serial dilution by the dispenser (TECAN D300E) to make a 9.9 μL of reaction mixture. After 20 minutes preincubation at room temperature, 0.1 μL MgCl2 (10 mM final) was added to initiate the reaction. Following a 45 minute incubation at 37° C., the reaction was stopped by addition of 2 μL of quenching buffer consisting of Lance detection buffer (Perkinelmer CR97-100C), LANCE Ultra Europium-anti-P-4E-BP1 (Perkinelmer, TRF0216-D), EDTA, and incubated at room temperature for additional 60 minutes in dark. The reaction signal was measured by Envision multimode plate reader (PerkinElmer, 2102-0010). IC50 values were determined by fitting the data to the standard 4 parameters with Hill Slope using GraphPad Prism software.

CDK2/Cyclin E2 = CDK2/Cyclin E2 (Homo sapiens, UniProt P24941); experiment: CDK2/CyclinE2 Enzymatic Activity Assay (TR-FRET); type: biochemical; conditions: CDK2/CyclinE2 1 nM, ATP 1 mM, read-out: CDK2_El IC50
Protocol: CDK2/CyclinE2 Enzymatic Activity Assay
The inhibitory activity of compounds was evaluated in vitro using TR-FRET assay with white 384-well low volume microplate (Greiner Bio-One). CDK2/Cyclin E2 catalyzed phosphorylation of peptide in the presence and absence of compounds was measured and used in IC50 determination. Recombinant protein complex CDK2/Cyclin E2, expressed from insect cell, was purchased from ProQinase. Testing compounds were dissolved in DMSO at 1 mM and tested in 9-dose IC50 mode. The reaction mixture was prepared by mixing CDK2/CyclinE2 (1 nM final), ULight-4E-BP1 (50 nM final, Perkinelmer, TRF0128-D), and ATP (1 mM final) in assay buffer (20 mM of HEPES pH 7.4, 1 mM of EGTA, 0.05% BSA, 0.005% Tween 20, and 1 mM TCEP). The compound of interest in DMSO was added to each well in 3-fold serial dilution by dispenser (TECAN D300E) to make a 9.9 μL of reaction mixture. After 20 minutes preincubation at room temperature, 0.1 μL MgCl2 (10 mM final) was added to initiate the reaction. Following a 45 minute incubation at 37° C., the reaction was stopped by addition of 2 μL of quenching buffer consisting of Lance detection buffer (Perkinelmer CR97-100C), LANCE Ultra Europium-anti-P-4E-BP1 (Perkinelmer, TRF0216-D), EDTA, and incubate at room temperature for additional 60 minutes in the dark. The reaction signal was measured by Envision multimode plate reader (PerkinElmer, 2102-0010). IC50 values were determined by fitting the data to the standard 4 parameters with Hill Slope using GraphPad Prism software.

## CS(=O)(=O)N1CCC(Nc2ncc(C(F)(F)F)c(-c3cc4c(s3)C3CCCN3C4=O)n2)CC1 (stereo not drawn) [Example 21, 2-(2-((1-(Methylsulfonyl)piperidin-4-yl)amino)-5-(trifluoromethyl)pyrimidin-4-yl)-6,7,8,8a-tetrahydro-4H-thieno[2,3-a]pyrrolizin-4-one]
pRB in OVCAR3 cells
  pIC50: 6.30 to 7.00
CDK4/Cyclin D1
  pIC50: ≥ 7.00
CDK2/Cyclin E2
  pIC50: ≥ 7.00

## CS(=O)(=O)N1CCC(Nc2ncc(C(F)(F)F)c(-c3cc4c(s3)C3(C5CC5)CCCN3C4=O)n2)CC1 (stereo not drawn) [Example 22, 8a-Cyclopropyl-2-(2-((1-(methylsulfonyl)piperidin-4-yl)amino)-5-(trifluoromethyl)pyrimidin-4-yl)-6,7,8,8a-tetrahydro-4H-thieno[2,3-a]pyrrolizin-4-one]
pRB in OVCAR3 cells
  pIC50: ≥ 7.00
CDK4/Cyclin D1
  pIC50: ≥ 7.00
CDK2/Cyclin E2
  pIC50: ≥ 7.00

## CS(=O)(=O)N1CCC(Nc2ncc(C(F)(F)F)c(-c3cc4c(s3)C3(C5CCC5)CCCN3C4=O)n2)CC1 (stereo not drawn) [Example 23, 8a-Cyclobutyl-2-(2-((1-(methylsulfonyl)piperidin-4-yl)amino)-5-(trifluoromethyl)pyrimidin-4-yl)-6,7,8,8a-tetrahydro-4H-thieno[2,3-a]pyrrolizin-4-one]
pRB in OVCAR3 cells
  pIC50: 6.30 to 7.00
CDK4/Cyclin D1
  pIC50: ≥ 7.00
CDK2/Cyclin E2
  pIC50: ≥ 7.00

## CS(=O)(=O)N1CCC(Nc2ncc(C(F)(F)F)c(-c3cc4c(s3)C3(C5CC(F)(F)C5)CCCN3C4=O)n2)CC1 (stereo not drawn) [Example 24, 8a-(3,3-Difluorocyclobutyl)-2-(2-((1-(methylsulfonyl)piperidin-4-yl)amino)-5-(trifluoromethyl)pyrimidin-4-yl)-6,7,8,8a-tetrahydro-4H-thieno[2,3-a]pyrrolizin-4-one]
pRB in OVCAR3 cells
  pIC50: 6.30 to 7.00
CDK4/Cyclin D1
  pIC50: ≥ 7.00
CDK2/Cyclin E2
  pIC50: ≥ 7.00

## CS(=O)(=O)N1CCC(Nc2ncc(C(F)(F)F)c(-c3cc4c(s3)C3(C5CC(O)C5)CCCN3C4=O)n2)CC1 (stereo not drawn) [Example 25, 8a-(3-Hydroxycyclobutyl)-2-(2-((1-(methylsulfonyl)piperidin-4-yl)amino)-5-(trifluoromethyl)pyrimidin-4-yl)-6,7,8,8a-tetrahydro-4H-thieno[2,3-a]pyrrolizin-4-one]
pRB in OVCAR3 cells
  pIC50: ≥ 7.00
CDK4/Cyclin D1
  pIC50: ≥ 7.00
CDK2/Cyclin E2
  pIC50: ≥ 7.00

## CS(=O)(=O)N1CCC(Nc2ncc(C(F)(F)F)c(-c3cc4c(s3)C3(C5CC(F)C5)CCCN3C4=O)n2)CC1 (stereo not drawn) [Example 26, 8a-(3-Fluorocyclobutyl)-2-(2-((1-(methylsulfonyl)piperidin-4-yl)amino)-5-(trifluoromethyl)pyrimidin-4-yl)-6,7,8,8a-tetrahydro-4H-thieno[2,3-a]pyrrolizin-4-one]
pRB in OVCAR3 cells
  pIC50: 6.30 to 7.00
CDK4/Cyclin D1
  pIC50: ≥ 7.00
CDK2/Cyclin E2
  pIC50: ≥ 7.00

## CCC12CCCN1C(=O)c1cc(-c3nc(NC4CCN(S(C)(=O)=O)CC4)ncc3Cl)sc12 (stereo not drawn) [Example 27, 2-(5-Chloro-2-((1-(methylsulfonyl)piperidin-4-yl)amino)pyrimidin-4-yl)-8a-ethyl-6,7,8,8a-tetrahydro-4H-thieno[2,3-a]pyrrolizin-4-one]
pRB in OVCAR3 cells
  pIC50: ≥ 7.00
CDK4/Cyclin D1
  pIC50: ≥ 7.00
CDK2/Cyclin E2
  pIC50: ≥ 7.00

## CC(C)C12CC(O)CN1C(=O)c1cc(-c3nc(NC4CCN(S(C)(=O)=O)CC4)ncc3C(F)(F)F)sc12 (stereo not drawn) [Example 29, 7-Hydroxy-8a-isopropyl-2-(2-((1-(methylsulfonyl)piperidin-4-yl)amino)-5-(trifluoromethyl)pyrimidin-4-yl)-6,7,8,8a-tetrahydro-4H-thieno[2,3-a]pyrrolizin-4-one]
pRB in OVCAR3 cells
  pIC50: ≥ 7.00
CDK4/Cyclin D1
  pIC50: ≥ 7.00
CDK2/Cyclin E2
  pIC50: ≥ 7.00

## COC1CN2C(=O)c3cc(-c4nc(NC5CCN(S(C)(=O)=O)CC5)ncc4C(F)(F)F)sc3C2(C(C)C)C1 (stereo not drawn) [Example 30, 8a-Isopropyl-7-methoxy-2-(2-((1-(methylsulfonyl)piperidin-4-yl)amino)-5-(trifluoromethyl)pyrimidin-4-yl)-6,7,8,8a-tetrahydro-4H-thieno[2,3-a]pyrrolizin-4-one]
pRB in OVCAR3 cells
  pIC50: 6.30 to 7.00
CDK4/Cyclin D1
  pIC50: ≥ 7.00
CDK2/Cyclin E2
  pIC50: ≥ 7.00

## CC(C)C12CC(CO)CN1C(=O)c1cc(-c3nc(NC4CCN(S(C)(=O)=O)CC4)ncc3C(F)(F)F)sc12 (stereo not drawn) [Example 31, 7-(Hydroxymethyl)-8a-isopropyl-2-(2-((1-(methylsulfonyl)piperidin-4-yl)amino)-5-(trifluoromethyl)pyrimidin-4-yl)-6,7,8,8a-tetrahydro-4H-thieno[2,3-a]pyrrolizin-4-one]
pRB in OVCAR3 cells
  pIC50: ≥ 7.00
CDK4/Cyclin D1
  pIC50: ≥ 7.00
CDK2/Cyclin E2
  pIC50: ≥ 7.00

## CCC12CC(F)(F)CN1C(=O)c1cc(-c3nc(NC4CCN(S(C)(=O)=O)CC4)ncc3C(F)(F)F)sc12 (stereo not drawn) [Example 32, 8a-Ethyl-7,7-difluoro-2-(2-((1-(methylsulfonyl)piperidin-4-yl)amino)-5-(trifluoromethyl)pyrimidin-4-yl)-6,7,8,8a-tetrahydro-4H-thieno[2,3-a]pyrrolizin-4-one]
pRB in OVCAR3 cells
  pIC50: ≥ 7.00
CDK4/Cyclin D1
  pIC50: ≥ 7.00
CDK2/Cyclin E2
  pIC50: ≥ 7.00

## CCC12CC(O)CN1C(=O)c1cc(-c3nc(NC4CCN(S(C)(=O)=O)CC4)ncc3C(F)(F)F)sc12 (stereo not drawn) [Example 33, 8a-Ethyl-7-hydroxy-2-(2-((1-(methylsulfonyl)piperidin-4-yl)amino)-5-(trifluoromethyl)pyrimidin-4-yl)-6,7,8,8a-tetrahydro-4H-thieno[2,3-a]pyrrolizin-4-one]
pRB in OVCAR3 cells
  pIC50: ≥ 7.00
CDK4/Cyclin D1
  pIC50: ≥ 7.00
CDK2/Cyclin E2
  pIC50: ≥ 7.00

## CCC12CC(C)(O)CN1C(=O)c1cc(-c3nc(NC4CCN(S(C)(=O)=O)CC4)ncc3C(F)(F)F)sc12 (stereo not drawn) [Example 34, 8a-Ethyl-7-hydroxy-7-methyl-2-(2-((1-(methylsulfonyl)piperidin-4-yl)amino)-5-(trifluoromethyl)pyrimidin-4-yl)-6,7,8,8a-tetrahydro-4H-thieno[2,3-a]pyrrolizin-4-one]
pRB in OVCAR3 cells
  pIC50: ≥ 7.00
CDK4/Cyclin D1
  pIC50: ≥ 7.00
CDK2/Cyclin E2
  pIC50: ≥ 7.00

## CCC12CC(F)(F)CN1C(=O)c1cc(-c3nc(NC4CCN(S(=O)(=O)c5cnn(C)c5)CC4)ncc3C(F)(F)F)sc12 (stereo not drawn) [Example 35, 8a-Ethyl-7,7-difluoro-2-(2-((1-((1-methyl-1H-pyrazol-4-yl)sulfonyl)piperidin-4-yl)amino)-5-(trifluoromethyl)pyrimidin-4-yl)-6,7,8,8a-tetrahydro-4H-thieno[2,3-a]pyrrolizin-4-one]
pRB in OVCAR3 cells
  pIC50: ≥ 7.00
CDK4/Cyclin D1
  pIC50: ≥ 7.00
CDK2/Cyclin E2
  pIC50: ≥ 7.00
